Source: US20050124554A1, “Spermidine derivatives for the treatment of chronic neurodegenerative diseases” (priority 2002, published 2005)

Legend:
[1] = system: organotypic hippocampal slice cultures (CA1 or CA3 pyramidal cell layer); test: Excitotoxic injury by glutamate receptor agonists, cell death by PI fluorescence; assay type: cell-based, Wistar rat; settings: for protection: 300 μM
Procedure: Organotypic hippocampal slice cultures were prepared according to established methods (Pringle et al. (1997), Brain Res., 755, 36-46). In brief, Wistar rat pups (8-11 days old) were decapitated and the hippocampus rapidly dissected into ice-cold Gey's balanced salt solution (Gibco Life Technologies, Paisley, UK) supplemented with 4.5 mg ml^−1 glucose. Slices were separated and plated onto Millicell CM culture inserts (4 per well) and maintained at 37° C. and 5% CO2 for 14 days. Maintenance medium consisted of 25% heat-inactivated horse serum, 25% Hank's balanced salt solution (HBSS) and 50% minimum essential medium with added Earle's salts MM, ICN Biomedicals, Basingstoke, UK) supplemented with 1 mM glutamine and 4.5 mg ml^−1 glucose. Medium was changed every 3-4 days.
Excitotoxic injury was performed as previously described (Pringle et al. (1997), Brain Res., 755, 36-46) with L-Arg3,4 present pre-, during, and post-injury fin treated cultures. Cultures were transferred to SFM+PI with or without 300 μM L-Arg3,4 and allowed to equilibrate for 30 min prior to imaging. […] The medium was then exchanged for SFM+PI plus a glutamate receptor agonist (either 10 mM glutamate, 10 μM NMDA, 10 μM AMPA, or 10 μM kainate) for 3 h. After exposure, the media was again exchanged for SFM+PI containing 300 μM L-Arg3,4. Cultures were then returned to the incubator until they were assessed for cell death in the indicated region of the pyramidal cell layer 24 h post exposure.
Neuronal damage was assessed as described previously (Pringle et al. (1996), Stroke, 27, 2124-2130; Pringle et al. (1997), Brain Res., 755, 36-46). Light transmission images were captured prior to the induction of injury, and PI fluorescence images recorded at the end of the 24 h post-injury recovery period. All images were captured on an inverted Leica DM-IRBE epifluorescence microscope (Milton Keynes, UK) fitted with a 100 W Hg lamp and standard rhodamine optics (excitation 510-560 nm; dichroic mirror […]; emission>590 nm). Images were acquired with a 5×NA 0.12 lens and a cooled Hamamatsu digital camera and digitised at 12 bit resolution for analysis in OpenLab 2.1 (Improvision, Coventry, UK) running on a Macintosh G4/400. The area of the CA1 or CA3 cell layer was determined from the transmission image, and the area of PI fluorescence in that cell layers was measured using the density slice function within OpenLab. Neuronal damage was expressed as a percentage of the area in which PI fluorescence was detected above threshold within a cell layer divided by the total area of that cell layer. Protection was calculated as the difference between the damage for a given well and the average damage in untreated controls divided by the average damage in untreated controls. Groups were compared against corresponding control groups using the two tailed Student's t-test with significance indicated as * for P<0.05, and ** for P<0.01. Data is presented as mean±s.e.mean.

[2] = system: organotypic hippocampal slice cultures (CA1 pyramidal cell layer); test: Free-radical mediated injury (duroquinone), cell death by PI fluorescence; assay type: cell-based, Wistar rat; settings: 100 μM duroquinone 3 h; 300 μM compound
Procedure: Organotypic hippocampal slice cultures were prepared according to established methods (Pringle et al. (1997), Brain Res., 755, 36-46). In brief, Wistar rat pups (8-11 days old) were decapitated and the hippocampus rapidly dissected into ice-cold Gey's balanced salt solution (Gibco Life Technologies, Paisley, UK) supplemented with 4.5 mg ml^−1 glucose. Slices were separated and plated onto Millicell CM culture inserts (4 per well) and maintained at 37° C. and 5% CO2 for 14 days. […]
Free-radical mediated injury was performed as described previously with L-Arg3,4 present pre-, during, and post-injury in treated cultures (Wilde et al. (1997, J. Neurochem., 69, 883-886). Briefly, cultures were transferred to SFM+PI with or without 300 μM L-Arg3,4 and allowed to equilibrate for 30 min prior to imaging. Any cultures in which PI fluorescence was detected at this stage were excluded from further study. Duroquinone (DQ) was dissolved in DMSO at a stock concentration of 100 mM which was then diluted 1:1000 in SFM for a final working concentration of 100 μM (final DMSO concentration of 0.1%). […]
Neuronal damage was assessed as described previously (Pringle et al. (1996), Stroke, 27, 2124-2130; Pringle et al. (1997), Brain Res., 755, 36-46). Light transmission images were captured prior to the induction of injury, and PI fluorescence images recorded at the end of the 24 h post-injury recovery period. […]

[3] = system: superoxide production in organotypic slice cultures (CA1 pyramidal cell layer); test: Superoxide production monitored fluorescently with hydroethidine (HEt); assay type: cell-based, Wistar rat
Procedure: Hydroethidine (HEt) has been utilised to fluorescently monitor the production of superoxide in primary neuronal cultures [Bindokas et al., (1996), Carriedo et al. (1998)]. A stock solution of HEt was made was made in N2 sparged DMSO (10 mg ml^−1) which was then aliquoted and stored at −80° C. aliquots were used only once before being discarded. Two separate experimental paradigms were employed to test the effect of L-Arg3,4 on superoxide production in response to either AMPA or NMDA stimulation.
For the AMA experiments, organotypic slice cultures were loaded with 1 μg ml^−1 HEt in HEPES buffered salt solution (HSS) (in mM): glucose 10, NaCl 144, KCl 5, HEPES 10, MgCl2 1, CaCl2 2, pH 7.4, for 30 minutes in the dark. All subsequent solutions contained HEt to prevent a decrease in signal due to reporter depletion. Images were acquired once per minute for the duration of the experiment on the same system as described above for assessment of cell death. A 10 minute record of baseline superoxide production was produced before the bathing solution was exchanged for HBSS+BEt containing 10 μM AMPA, again for 10 minutes. As shown previously, stimulation of glutamate receptors with AMPA lead to an increase in superoxide production [Bindokas et al., (1996), Carriedo et al. (1998)]. The bathing solution was then exchanged for HBSS+HEt containing both 10 μM AMPA and 300 μM L-Arg3,4 for 10 minutes to test the effect of L-Arg3,4 on superoxide production. In separate control experiments, 300 μM L-Arg3,4 in HSS was incubated with slices to determine if it affected baseline superoxide production on its own.
Acquired images from the AMPA experiments were then analysed with the OpenLab image analysis package. A region of interest was drawn around the CA1 pyramidal cell layer because this was the cell layer that produced the largest increase in fluorescence in response to AMPA activation. In each image, within the region of interest, the average pixel value was calculated in arbitrary units (AU) to produce a record of fluorescence intensity values over time. A linear regression was then performed on the data to calculate the rate of superoxide production as change in intensity over time (arbitrary units per minute, AU min^−1) for each of the treatments. Data is presented as mean±s.d. Rates of superoxide production were then compared by ANOVA followed by post-hoc comparisons with Bonferroni corrections with significance indicated as * for P<0.05 and ** for P<0.01.

[4] = previous studies, WO99/31049; cited from earlier work

## N=C(N)NCCCC(N)C(=O)NCCCNCCCCN [L-Arg3,4, L-arginyl-3,4-spermidine]
[1]; 10 μM AMPA 3 h, 300 μM compound
  cell death (damage) in CA1: 19±4%
[1]; 10 μM AMPA, CA1
  protection: 53%
[1]; 10 μM NMDA 3 h, 300 μM compound
  cell death (damage) in CA1: 16±2%
[1]; 10 μM NMDA, CA1
  protection: 38%
[1]; 10 μM kainate 3 h, 300 μM compound
  cell death (damage) in CA3: 11±4%
[1]; 10 μM kainate, CA3
  protection: 61%
[1]; 10 mM Glut 3 h, 300 μM compound pre-, during, post-injury
  cell death (damage) in CA1: 13±3%
[1]; 10 mM Glut, CA1
  protection: 41%
[2]
  injury (cell death in CA1): 21±5%
  protection: 46%
[3]; 300 μM compound alone, no AMPA
  rate of baseline superoxide production: 2.55±2.02 AU min^−1
[3]; 300 μM compound in continued presence of 10 μM AMPA
  rate of superoxide production: 5.07±1.94 AU min-d
[4]
  effect on blood pressure, heart rate, respiration, motor function: did not affect blood pressure, heart rate or respiration, or result in adverse motor function
